Measured values from ChEMBL document CHEMBL1201862, “PubChem BioAssay data set” (2004).
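48-hour exposure; five concentrations; linearly interpolated endpoints. The concentration for 50% growth inhibition is given as GI50.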 The source made the active and inactive calls. Rule as the data show it: active = GI50 up to about 1.1 µM and inactive = higher.

Key:
Test in all cases: NCI anticancer screen, dose series, 48 h
DU-145 = tested on: DU-145
CAKI-1 = tested on: CAKI-1
A549 = tested on: A549
NCI-H226 = tested on: NCI-H226
T47D = tested on: T47D
KM12 = tested on: KM12
SF-268 = tested on: SF-268
UO-31 = tested on: UO-31
SNB-19 = tested on: SNB-19
LOX IMVI = tested on: LOX IMVI
HCC 2998 = tested on: HCC 2998
SW-620 = tested on: SW-620
TK-10 = tested on: TK-10
NCI-H23 = tested on: NCI-H23
SF-539 = tested on: SF-539
M14 = tested on: M14
UACC-62 = tested on: UACC-62
SK-MEL-2 = tested on: SK-MEL-2
PC-3 = tested on: PC-3
MCF7 = tested on: MCF7

Row | SMILES | GI50 (DU-145) | GI50 (CAKI-1) | GI50 (A549) | GI50 (NCI-H226) | GI50 (T47D) | GI50 (KM12) | GI50 (SF-268) | GI50 (UO-31) | GI50 (SNB-19) | GI50 (LOX IMVI) | GI50 (HCC 2998) | GI50 (SW-620) | GI50 (TK-10) | GI50 (NCI-H23) | GI50 (SF-539) | GI50 (M14) | GI50 (UACC-62) | GI50 (SK-MEL-2) | GI50 (PC-3) | GI50 (MCF7)
1 | N#Cc1c(N2CCCC2)ncn(-c2ccccc2)c1=O | > 100 µM (inactive) | > 100 µM (inactive) | > 100 µM (inactive) | > 100 µM (inactive) | > 100 µM (inactive) | > 100 µM (inactive) | > 100 µM (inactive) | > 100 µM (inactive) | > 100 µM (inactive) | > 100 µM (inactive) | > 100 µM (inactive) | > 100 µM (inactive) | > 100 µM (inactive) | > 100 µM (inactive) | > 100 µM (inactive) | > 100 µM (inactive) | > 100 µM (inactive) | > 100 µM (inactive) | > 100 µM (inactive) | –
2 | CC1(C)C=C(/C=N/Nc2ccccc2)C(C#N)=C(O)C1(C#N)C#N | > 100 µM (inactive) | > 100 µM (inactive) | > 100 µM (inactive) | > 100 µM (inactive) | – | > 100 µM (inactive) | > 100 µM (inactive) | > 100 µM (inactive) | > 100 µM (inactive) | > 100 µM (inactive) | > 100 µM (inactive) | > 100 µM (inactive) | > 100 µM (inactive) | > 100 µM (inactive) | > 100 µM (inactive) | > 100 µM (inactive) | > 100 µM (inactive) | – | 36.7 µM (inactive) | > 100 µM (inactive)
3 | COc1ccc(-c2nc(-c3cnccn3)n(C3OC(CO)C(O)C3O)n2)cc1 (stereo unspecified) | – | – | > 10 µM (inactive) | > 10 µM (inactive) | – | > 10 µM (inactive) | > 10 µM (inactive) | > 10 µM (inactive) | > 10 µM (inactive) | > 10 µM (inactive) | > 10 µM (inactive) | > 10 µM (inactive) | > 10 µM (inactive) | > 10 µM (inactive) | > 10 µM (inactive) | > 10 µM (inactive) | > 10 µM (inactive) | > 10 µM (inactive) | > 10 µM (inactive) | > 10 µM (inactive)
4 | CN(C)c1ccc(/C=N/c2nc3cc4sc(/N=C/c5ccc(N(C)C)cc5)nc4cc3s2)cc1 | 8.22 µM (inactive) | 21.3 µM (inactive) | 12.8 µM (inactive) | 33.3 µM (inactive) | 42.5 µM (inactive) | 46.7 µM (inactive) | 45 µM (inactive) | 92.7 µM (inactive) | 77.6 µM (inactive) | 47.8 µM (inactive) | – | 33.9 µM (inactive) | 80.7 µM (inactive) | 28.5 µM (inactive) | > 100 µM (inactive) | > 100 µM (inactive) | > 100 µM (inactive) | > 100 µM (inactive) | > 100 µM (inactive) | 12.6 µM (inactive)
5 | CN(C)C(=S)/N=c1\ssc(=S)n1Cc1ccco1 | – | 2.01 µM (inactive) | 1.98 µM (inactive) | 12 µM (inactive) | 0.571 µM (active) | 2.06 µM (inactive) | 7.46 µM (inactive) | 5.57 µM (inactive) | 2.9 µM (inactive) | 2.4 µM (inactive) | 4.61 µM (inactive) | 0.701 µM (active) | 20.6 µM (inactive) | 2.38 µM (inactive) | 1.95 µM (inactive) | 2.15 µM (inactive) | 0.879 µM (active) | 2.37 µM (inactive) | 0.509 µM (active) | 0.49 µM (active)
6 | CCCCCCC(C)CC(CCCCCC)NCCOC(=O)c1ccc([N+](=O)[O-])cc1 (stereo unspecified) | 15.6 µM (inactive) | – | 15.6 µM (inactive) | 14.1 µM (inactive) | 15.6 µM (inactive) | 14.1 µM (inactive) | 16.3 µM (inactive) | 11.6 µM (inactive) | 15.9 µM (inactive) | 7.4 µM (inactive) | 3.72 µM (inactive) | 13.6 µM (inactive) | 12 µM (inactive) | 18 µM (inactive) | 15.8 µM (inactive) | – | 14.5 µM (inactive) | 15.8 µM (inactive) | – | 14.1 µM (inactive)
7 | Cc1nnc2n1N=C(c1cc(F)c(Cl)cc1Cl)/C(=C/c1ccc(-c3ccc([N+](=O)[O-])cc3)o1)S2 | – | > 100 µM (inactive) | > 100 µM (inactive) | – | 28.6 µM (inactive) | 69.2 µM (inactive) | > 100 µM (inactive) | 85.3 µM (inactive) | > 100 µM (inactive) | 33.2 µM (inactive) | > 100 µM (inactive) | 39.6 µM (inactive) | – | 34.3 µM (inactive) | – | > 100 µM (inactive) | > 100 µM (inactive) | 42.6 µM (inactive) | 47.4 µM (inactive) | 44 µM (inactive)
8 | Cn1c(=O)oc2cc(C(=S)N3CCC(Cc4ccccc4)CC3)ccc21 | > 100 µM (inactive) | > 100 µM (inactive) | – | > 100 µM (inactive) | – | > 100 µM (inactive) | > 100 µM (inactive) | – | > 100 µM (inactive) | > 100 µM (inactive) | – | > 100 µM (inactive) | > 100 µM (inactive) | > 100 µM (inactive) | > 100 µM (inactive) | > 100 µM (inactive) | > 100 µM (inactive) | > 100 µM (inactive) | > 100 µM (inactive) | > 100 µM (inactive)
9 | CCOC(=O)CCN1C(=O)C(=O)N(c2ccc(OC)cc2)C1=S | > 100 µM (inactive) | > 100 µM (inactive) | > 100 µM (inactive) | 25.6 µM (inactive) | > 100 µM (inactive) | 39.1 µM (inactive) | > 100 µM (inactive) | 56.5 µM (inactive) | > 100 µM (inactive) | > 100 µM (inactive) | 69.2 µM (inactive) | > 100 µM (inactive) | > 100 µM (inactive) | > 100 µM (inactive) | 97.7 µM (inactive) | – | 16 µM (inactive) | > 100 µM (inactive) | > 100 µM (inactive) | –
10 | c1csc(-c2ccsc2-c2cccs2)c1 | > 100 µM (inactive) | > 100 µM (inactive) | 19.2 µM (inactive) | 46.8 µM (inactive) | 29.9 µM (inactive) | 47.6 µM (inactive) | > 100 µM (inactive) | 39.5 µM (inactive) | – | 98.6 µM (inactive) | 53.7 µM (inactive) | 80.4 µM (inactive) | > 100 µM (inactive) | 13.3 µM (inactive) | > 100 µM (inactive) | 59.2 µM (inactive) | > 100 µM (inactive) | – | – | 34.6 µM (inactive)
11 | CC1CC/C(=C\c2ccc(F)cc2)C(=O)/C1=C/c1ccc(F)cc1 (stereo unspecified) | 4.07 µM (inactive) | 3.85 µM (inactive) | – | 7.03 µM (inactive) | 5.46 µM (inactive) | 2.97 µM (inactive) | 3.6 µM (inactive) | 11.1 µM (inactive) | 10.1 µM (inactive) | 2.77 µM (inactive) | – | 6.04 µM (inactive) | 3.85 µM (inactive) | 6.44 µM (inactive) | 3.68 µM (inactive) | 6.76 µM (inactive) | 11.6 µM (inactive) | 4.83 µM (inactive) | 5.2 µM (inactive) | 4.21 µM (inactive)
12 | COC(=O)c1cc(S(=O)(=O)NC2=NNC(C)CN2)c(S)cc1Cl (stereo unspecified) | 78.9 µM (inactive) | > 100 µM (inactive) | 30.1 µM (inactive) | – | – | 40.4 µM (inactive) | 13.5 µM (inactive) | 99.3 µM (inactive) | 85.1 µM (inactive) | 37.5 µM (inactive) | 42.3 µM (inactive) | 42.3 µM (inactive) | > 100 µM (inactive) | 44.8 µM (inactive) | 40.5 µM (inactive) | 31.5 µM (inactive) | 47 µM (inactive) | 26 µM (inactive) | 42.8 µM (inactive) | 42 µM (inactive)
13 | C(CCCCc1nnc(N2CCOCC2)o1)CCCc1nnc(N2CCOCC2)o1 | > 100 µM (inactive) | > 100 µM (inactive) | > 100 µM (inactive) | > 100 µM (inactive) | – | > 100 µM (inactive) | – | > 100 µM (inactive) | > 100 µM (inactive) | > 100 µM (inactive) | – | > 100 µM (inactive) | > 100 µM (inactive) | > 100 µM (inactive) | > 100 µM (inactive) | > 100 µM (inactive) | – | > 100 µM (inactive) | > 100 µM (inactive) | > 100 µM (inactive)
14 | OCC(O)C(O)C(C=NNc1ncnc2ccc(Br)cc12)=NNc1ncnc2ccc(Br)cc12 (stereo unspecified) | – | 2.22 µM (inactive) | 6.3 µM (inactive) | 2.12 µM (inactive) | 0.413 µM (active) | 5.7 µM (inactive) | 1.16 µM (inactive) | 9.71 µM (inactive) | 6.04 µM (inactive) | 0.991 µM (active) | – | – | 13.2 µM (inactive) | – | 3.13 µM (inactive) | 3.48 µM (inactive) | – | 2.26 µM (inactive) | 4.73 µM (inactive) | 0.479 µM (active)
15 | COc1ccccc1-c1cc(O)c2ccc(C)nc2n1 | > 100 µM (inactive) | > 100 µM (inactive) | > 100 µM (inactive) | > 100 µM (inactive) | > 100 µM (inactive) | 42.6 µM (inactive) | > 100 µM (inactive) | > 100 µM (inactive) | > 100 µM (inactive) | > 100 µM (inactive) | > 100 µM (inactive) | 50.9 µM (inactive) | > 100 µM (inactive) | > 100 µM (inactive) | > 100 µM (inactive) | 98.2 µM (inactive) | > 100 µM (inactive) | > 100 µM (inactive) | – | 47.4 µM (inactive)
16 | COc1cc(C2SCC(=O)N2c2cccc(Cl)c2)cc(OC)c1OC (stereo unspecified) | 63.7 µM (inactive) | 55.7 µM (inactive) | > 100 µM (inactive) | > 100 µM (inactive) | – | 47.8 µM (inactive) | > 100 µM (inactive) | 58.2 µM (inactive) | 11.4 µM (inactive) | 70.1 µM (inactive) | > 100 µM (inactive) | > 100 µM (inactive) | > 100 µM (inactive) | > 100 µM (inactive) | > 100 µM (inactive) | 84.9 µM (inactive) | 11.3 µM (inactive) | > 100 µM (inactive) | > 100 µM (inactive) | 46.8 µM (inactive)
